For data set [1], the system named is AML12 cells (mouse hepatocyte cell lines). As to the kind of experiment: Cytotoxicity of curcumin derivatives (MTT) with TGF-β treatment. Type of data set: cell-based. The settings on record: 2 ng/ml TGF-β; at concentrations other than 0.1 μM (1, 3, 5 μM); FIG. 1. The method, then: Cell experiments were performed by using AML12, […], and LX-2 cells, a human hepatic stellate cell.
AML12 cells were cultured in a culture medium made by adding 5 ml of insulin (ITS), 40 ng/ml of dexamethasone, 1% penicillin streptomycin (anti-anti), and 10% fetal bovine serum (FBS) to F-12 media (Corning Incorporated, USA, Arizona), a mixture of a DMEM medium and Ham's F-12 at a ratio of 50:50, which is used for culturing hepatocytes or prostate epithelial cells.
In order to confirm cytotoxicity, the cells of Example 1-1 were treated with 2 ng/ml of TGF-β, and then with curcumin (CUR), curcumin 5-8 (CURS-8), curcumin 4-8 (CUR4-8), and curcumin 5-14 (CURS-14) at 0.1, 1, 3, and 5 μM, respectively, for the same period of time. Thereafter, cells cultured in an incubator of 5% CO2 at 37° C. were stained with a tetrazolium dye capable of staining surviving cells (MTT), and absorbance was measured by using a spectrophotometer.
By a method described in Example 1-2, the numbers of surviving cells when curcumin (CUR) and curcumin derivatives (CUR5-8, CUR4-8, and CUR5-14) each were co-administered with TGF-β at respective concentrations were measured.

For data set [2], the system named is mouse hepatocyte cell lines (AML12). As to the kind of experiment: TGF-β-induced fibrosis, co-administration of curcumin derivative and EW-7197 (epithelial-mesenchymal conversion, BODIPY, α-SMA staining, Western blotting). The format is cell-based. The settings on record: 2 ng/ml TGF-β, 24 hours, 1 μM Cur or Cur5-8, 10 μM EW-7197. On the procedure:
Fibrosis was induced in hepatocytes with TGF-β, a curcumin derivative and a TGF-β receptor inhibitor were co-administered, and then fibrosis and fat synthesis and degradation were checked.
Specifically, 2 ng/ml of TGF-β was administered to the cells of Example 1-1, the cells were divided into administration groups of vehicle (Veh), 1 μM curcumin (Cur), 1 μM curcumin 5-8 (Cur5-8), 0.5 μM EW-7197 (EW0.5), 10 μM EW-7197 (EW or EW10), 1 μM curcumin and 0.5 μM EW-7197 (EW0.5+Cur), 1 μM curcumin and 10 μM EW-7197 (EW+Cur or EW10+Cur), 1 μM curcumin 5-8 and 0.5 μM EW-7197 (EW0.5+Cur5-8), 1 μM curcumin 5-8 and 10 μM EW-7197 (EW+Cur5-8 or EW10+Cur5-8), respective samples were administered, and culturing was performed for 24 hours. The control group (Con) was not treated with either TGF-β or the sample. […] After washing with PBS 1×, stained cells were observed.
In addition, in order to check the degree of fibrosis of hepatocytes, the cells cultured for 24 hours were fixed with 4% paraformaldehyde and then stained by using α-SMA (Santa Cruz Biotechnology, Inc., Dallas, Texas, USA), an Alexafluor 488 (Cell Signaling Technology, Danvers, Massachusetts, USA) antibody, and DAPI (Abcam plc., Cambridge, MA, USA). The cells were mounted with a mounting solution (Fisher Scientific, Hampton, Rockingham, USA), the manufactured sample was photographed using a confocal microscope to obtain photographs of stained cells, and the degree of color development in the photographs of the stained cells was analyzed with the ImageJ program.
In addition, in order to confirm the degree of fibrosis of hepatocytes, the cells cultured for 24 hours were collected, and protein expressions of α-SMA, Collagen I (Coll), p-SMAD2, and p-SMAD3 were checked by Western blotting with fibrosis markers in the same method as described in <Example 1-3>.
In order to check a synergistic effect of inhibiting fibrosis caused by a TGF-β and inhibiting fat accumulation caused thereby in case of co-administration of a curcumin derivative (Cur5-8) and a TGF-β receptor inhibitor (EW-7197), epithelial-mesenchymal conversion of hepatocytes was confirmed through a cell experiment by the method described in Example 1-5, and BODIPY staining and α-SMA staining were performed. Also, protein expressions of α-SMA, Collagen I p-SMAD2, and p-SMAD3 were checked by Western blotting.

Take `COc1cc(C#Cc2cncc(C#Cc3ccc(O)c(OC)c3)c2)ccc1O` [Cur4-8, 4,4′-(3,5-Pyridinediyldi-2,1-ethynediyl)bis(2-methoxyphenol)]: the “cytotoxicity (MTT)” value in data set [1] is given as “cytotoxicity was high”.

As to `COc1cc(/C=C/C(=O)CC(=O)/C=C/c2ccc(O)c(OC)c2)ccc1O` [Cur, curcumin], the “epithelial-mesenchymal conversion caused by TGF-β” value in data set [2] (FIG. 8) is “not inhibited”. Moreover, in data set [2] (FIGS. 8, 10, 11), the “liver fibrosis (α-SMA staining, fibrosis marker Western blotting)” value is given as “liver fibrosis was induced”.

The values are drawn from patent publication US20230364069A1, “METHOD FOR TREATING NON-ALCOHOLIC STEATOHEPATITIS THROUGH CO-ADMINISTRATION OF CURCUMIN DERIVATIVE AND TGF-B RECEPTOR INHIBITOR” (UNIVERSITY INDUSTRY FOUNDATION, YONSEI UNIVERSITY WONJU …, priority 2021, published 2023).
